Test results as given in doi:10.1101/2023.03.24.534094v2 (biorxiv, 2023).
Like-named read-outs stand apart in the source and are kept apart here. Blank lines part the entries; values can stand above or below the molecule they belong to.

Key:
Assay in all cases: biochemical
[1] = biological target: SRC (Homo sapiens, UniProt P12931)
[2] = biological target: T1, MER (Homo sapiens, UniProt Q12866)
T1 sequence (Q12866 1-999): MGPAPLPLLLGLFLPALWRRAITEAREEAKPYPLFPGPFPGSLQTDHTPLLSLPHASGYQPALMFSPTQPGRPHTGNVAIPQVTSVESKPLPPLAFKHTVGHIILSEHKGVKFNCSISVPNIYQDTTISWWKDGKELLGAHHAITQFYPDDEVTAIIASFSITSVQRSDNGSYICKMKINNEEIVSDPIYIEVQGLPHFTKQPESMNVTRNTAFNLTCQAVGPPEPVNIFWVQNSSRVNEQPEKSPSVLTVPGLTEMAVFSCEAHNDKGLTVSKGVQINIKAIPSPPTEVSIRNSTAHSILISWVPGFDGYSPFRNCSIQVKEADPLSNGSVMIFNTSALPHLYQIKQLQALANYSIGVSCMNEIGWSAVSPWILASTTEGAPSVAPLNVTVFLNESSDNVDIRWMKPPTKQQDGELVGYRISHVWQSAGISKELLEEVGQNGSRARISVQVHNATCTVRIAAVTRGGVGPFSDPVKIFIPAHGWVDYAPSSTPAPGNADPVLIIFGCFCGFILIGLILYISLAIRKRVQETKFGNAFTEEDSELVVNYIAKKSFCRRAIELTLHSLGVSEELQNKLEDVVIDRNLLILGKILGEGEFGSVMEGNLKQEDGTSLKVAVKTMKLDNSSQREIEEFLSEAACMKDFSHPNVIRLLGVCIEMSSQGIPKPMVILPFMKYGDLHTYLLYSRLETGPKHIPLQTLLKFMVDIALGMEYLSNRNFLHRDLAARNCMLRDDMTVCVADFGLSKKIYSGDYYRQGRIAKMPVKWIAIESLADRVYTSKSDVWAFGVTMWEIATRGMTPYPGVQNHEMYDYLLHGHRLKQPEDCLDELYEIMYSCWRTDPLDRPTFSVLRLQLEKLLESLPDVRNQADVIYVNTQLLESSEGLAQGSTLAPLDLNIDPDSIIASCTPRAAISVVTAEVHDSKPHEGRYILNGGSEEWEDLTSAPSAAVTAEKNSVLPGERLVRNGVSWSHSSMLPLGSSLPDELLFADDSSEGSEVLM

[3] = biological target: T2, ULK3 (Homo sapiens, UniProt Q6PHR2)
T2 sequence (Q6PHR2 1-472): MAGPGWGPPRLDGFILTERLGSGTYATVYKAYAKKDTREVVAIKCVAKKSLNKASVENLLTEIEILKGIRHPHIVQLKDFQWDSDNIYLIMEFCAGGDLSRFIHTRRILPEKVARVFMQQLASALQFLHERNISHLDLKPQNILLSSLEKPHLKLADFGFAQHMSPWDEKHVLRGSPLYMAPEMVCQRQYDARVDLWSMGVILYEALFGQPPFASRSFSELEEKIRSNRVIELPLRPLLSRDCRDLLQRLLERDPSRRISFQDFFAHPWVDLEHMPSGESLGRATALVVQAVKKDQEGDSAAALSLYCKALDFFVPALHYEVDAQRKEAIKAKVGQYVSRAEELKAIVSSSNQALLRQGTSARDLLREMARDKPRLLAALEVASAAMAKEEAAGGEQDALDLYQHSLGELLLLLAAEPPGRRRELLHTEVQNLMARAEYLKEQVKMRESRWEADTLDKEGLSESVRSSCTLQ

[4] = biological target: CHK2 (Homo sapiens, UniProt O96017)
Chain of CHK2 (O96017 whole entry): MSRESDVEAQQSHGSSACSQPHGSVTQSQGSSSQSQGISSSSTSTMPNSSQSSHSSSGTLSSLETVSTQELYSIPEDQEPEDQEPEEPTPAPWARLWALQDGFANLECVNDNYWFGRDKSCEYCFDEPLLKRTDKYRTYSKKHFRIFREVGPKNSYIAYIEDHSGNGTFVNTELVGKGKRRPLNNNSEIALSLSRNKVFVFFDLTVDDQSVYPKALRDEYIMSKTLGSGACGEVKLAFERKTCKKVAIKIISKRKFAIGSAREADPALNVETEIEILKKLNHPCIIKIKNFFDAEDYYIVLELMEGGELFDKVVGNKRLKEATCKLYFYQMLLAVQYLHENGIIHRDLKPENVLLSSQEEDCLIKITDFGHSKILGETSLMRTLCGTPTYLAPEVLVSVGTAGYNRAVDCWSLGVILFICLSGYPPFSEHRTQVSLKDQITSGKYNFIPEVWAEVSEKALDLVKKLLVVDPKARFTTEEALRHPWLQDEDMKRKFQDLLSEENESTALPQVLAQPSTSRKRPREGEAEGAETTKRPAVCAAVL

[5] = biological target: MRCKa (Homo sapiens, UniProt Q5VT25)
Chain of MRCKa (Q5VT25 whole entry): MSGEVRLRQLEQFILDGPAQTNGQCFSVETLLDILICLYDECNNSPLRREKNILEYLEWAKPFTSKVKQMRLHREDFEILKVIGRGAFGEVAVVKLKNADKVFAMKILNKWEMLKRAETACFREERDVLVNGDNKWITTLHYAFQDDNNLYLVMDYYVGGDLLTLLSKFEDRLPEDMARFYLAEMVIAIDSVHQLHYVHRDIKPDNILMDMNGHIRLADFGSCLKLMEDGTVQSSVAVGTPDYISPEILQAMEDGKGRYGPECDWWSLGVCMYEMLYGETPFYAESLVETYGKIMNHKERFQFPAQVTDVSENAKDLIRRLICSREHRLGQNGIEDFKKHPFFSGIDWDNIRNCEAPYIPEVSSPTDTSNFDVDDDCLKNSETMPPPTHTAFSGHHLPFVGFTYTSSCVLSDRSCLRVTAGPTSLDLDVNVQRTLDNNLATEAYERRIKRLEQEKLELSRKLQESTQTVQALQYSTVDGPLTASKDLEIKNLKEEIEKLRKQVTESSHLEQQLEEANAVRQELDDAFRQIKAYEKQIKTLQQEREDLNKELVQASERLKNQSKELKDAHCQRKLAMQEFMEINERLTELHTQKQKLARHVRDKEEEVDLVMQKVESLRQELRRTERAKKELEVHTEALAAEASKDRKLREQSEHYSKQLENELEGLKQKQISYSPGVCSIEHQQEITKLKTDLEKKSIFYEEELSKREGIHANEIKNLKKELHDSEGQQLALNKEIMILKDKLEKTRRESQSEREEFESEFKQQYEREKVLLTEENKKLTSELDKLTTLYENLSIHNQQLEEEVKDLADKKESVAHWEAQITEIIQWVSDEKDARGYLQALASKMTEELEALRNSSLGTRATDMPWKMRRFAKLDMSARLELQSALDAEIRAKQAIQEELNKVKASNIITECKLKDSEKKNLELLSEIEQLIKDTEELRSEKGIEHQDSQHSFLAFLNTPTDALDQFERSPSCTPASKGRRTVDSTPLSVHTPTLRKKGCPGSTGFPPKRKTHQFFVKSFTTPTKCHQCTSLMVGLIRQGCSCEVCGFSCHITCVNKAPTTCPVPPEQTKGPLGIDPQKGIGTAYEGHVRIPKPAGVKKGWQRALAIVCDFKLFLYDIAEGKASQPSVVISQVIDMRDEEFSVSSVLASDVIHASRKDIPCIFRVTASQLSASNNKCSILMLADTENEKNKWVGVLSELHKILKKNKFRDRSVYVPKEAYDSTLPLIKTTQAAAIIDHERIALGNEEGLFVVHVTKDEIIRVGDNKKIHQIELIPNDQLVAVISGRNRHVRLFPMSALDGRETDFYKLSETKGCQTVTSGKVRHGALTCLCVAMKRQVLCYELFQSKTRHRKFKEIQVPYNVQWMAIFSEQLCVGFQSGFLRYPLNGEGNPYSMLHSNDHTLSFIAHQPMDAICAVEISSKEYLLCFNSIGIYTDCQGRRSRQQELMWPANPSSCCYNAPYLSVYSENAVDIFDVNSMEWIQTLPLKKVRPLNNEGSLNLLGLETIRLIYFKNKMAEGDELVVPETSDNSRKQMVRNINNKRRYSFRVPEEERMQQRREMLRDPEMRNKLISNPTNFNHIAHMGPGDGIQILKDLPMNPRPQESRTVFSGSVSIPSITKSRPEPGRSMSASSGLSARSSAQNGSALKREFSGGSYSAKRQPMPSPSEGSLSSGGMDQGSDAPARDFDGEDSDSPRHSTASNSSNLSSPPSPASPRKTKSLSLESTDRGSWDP

[6] = biological target: T3, NEK2 (Homo sapiens, UniProt P51955)
T3 sequence (P51955 1-445): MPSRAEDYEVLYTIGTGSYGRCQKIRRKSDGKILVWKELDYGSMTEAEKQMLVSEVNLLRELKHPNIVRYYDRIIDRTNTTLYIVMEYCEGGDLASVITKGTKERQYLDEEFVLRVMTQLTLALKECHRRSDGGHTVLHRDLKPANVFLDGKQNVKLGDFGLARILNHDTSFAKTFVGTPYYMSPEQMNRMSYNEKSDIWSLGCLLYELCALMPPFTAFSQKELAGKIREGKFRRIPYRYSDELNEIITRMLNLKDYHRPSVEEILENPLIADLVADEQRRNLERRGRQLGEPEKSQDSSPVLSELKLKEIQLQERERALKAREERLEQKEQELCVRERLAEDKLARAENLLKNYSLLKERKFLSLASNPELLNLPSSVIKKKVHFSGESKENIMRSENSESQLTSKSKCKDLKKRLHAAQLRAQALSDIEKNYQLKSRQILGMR

[7] = biological target: CK2a2 (Homo sapiens, UniProt P19784)
Chain of CK2a2 (P19784 whole entry): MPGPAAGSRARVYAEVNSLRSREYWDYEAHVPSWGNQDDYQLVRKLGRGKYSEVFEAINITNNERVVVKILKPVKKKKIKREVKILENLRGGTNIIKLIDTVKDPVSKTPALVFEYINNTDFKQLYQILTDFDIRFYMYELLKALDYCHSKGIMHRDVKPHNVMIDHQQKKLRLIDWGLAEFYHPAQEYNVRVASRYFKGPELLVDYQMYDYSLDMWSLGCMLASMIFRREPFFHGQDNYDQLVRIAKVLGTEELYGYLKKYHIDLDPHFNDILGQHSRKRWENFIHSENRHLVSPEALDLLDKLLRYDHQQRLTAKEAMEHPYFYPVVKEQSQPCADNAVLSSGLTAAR

[8] = biological target: BRD4 (Homo sapiens, UniProt O60885)
[9] = biological target: JNK3 (Homo sapiens, UniProt P53779)
Chain of JNK3 (P53779 whole entry): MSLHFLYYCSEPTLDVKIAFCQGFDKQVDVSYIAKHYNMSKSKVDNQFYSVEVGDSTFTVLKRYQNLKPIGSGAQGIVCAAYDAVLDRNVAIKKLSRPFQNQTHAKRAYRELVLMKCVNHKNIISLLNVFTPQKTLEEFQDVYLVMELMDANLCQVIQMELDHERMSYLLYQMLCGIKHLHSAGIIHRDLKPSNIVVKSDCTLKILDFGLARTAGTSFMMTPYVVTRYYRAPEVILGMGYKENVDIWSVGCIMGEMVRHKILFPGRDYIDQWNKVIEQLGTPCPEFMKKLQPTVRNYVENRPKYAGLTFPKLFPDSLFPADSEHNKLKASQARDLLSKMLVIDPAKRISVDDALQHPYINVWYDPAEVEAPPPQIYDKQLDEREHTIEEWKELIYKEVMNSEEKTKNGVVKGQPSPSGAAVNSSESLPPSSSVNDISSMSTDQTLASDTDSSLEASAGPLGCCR

Chain of SRC (P12931 whole entry): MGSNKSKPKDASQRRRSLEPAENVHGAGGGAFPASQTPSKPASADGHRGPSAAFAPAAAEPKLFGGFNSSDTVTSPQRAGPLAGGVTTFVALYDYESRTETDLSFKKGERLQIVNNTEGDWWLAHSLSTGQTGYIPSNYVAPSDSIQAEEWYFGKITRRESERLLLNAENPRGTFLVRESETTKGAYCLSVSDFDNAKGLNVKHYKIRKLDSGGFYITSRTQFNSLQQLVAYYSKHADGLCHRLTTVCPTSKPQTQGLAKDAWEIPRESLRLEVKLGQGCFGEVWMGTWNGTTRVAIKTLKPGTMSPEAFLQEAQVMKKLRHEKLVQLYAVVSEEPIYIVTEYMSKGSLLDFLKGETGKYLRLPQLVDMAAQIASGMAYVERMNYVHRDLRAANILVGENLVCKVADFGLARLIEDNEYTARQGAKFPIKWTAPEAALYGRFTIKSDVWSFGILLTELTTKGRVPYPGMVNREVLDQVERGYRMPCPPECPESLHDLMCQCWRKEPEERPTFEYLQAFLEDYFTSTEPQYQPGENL

ΔTm at 10 µM ([9]; read-out: dTm 7): 0.5 °C
ΔTm at 10 µM ([1]; read-out: dTm 7): 0.1 °C
ΔTm at 10 µM ([2]; read-out: dTm 7): 0.2 °C
ΔTm at 10 µM ([3]; read-out: dTm 7): 0.6 °C
ΔTm at 10 µM ([4]; read-out: dTm 7): 0.2 °C
ΔTm at 10 µM ([5]; read-out: dTm 7): 0.1 °C
ΔTm at 10 µM ([6]; read-out: dTm 7): 2.1 °C
ΔTm at 10 µM ([7]; read-out: dTm 7): 0.1 °C
ΔTm at 10 µM ([8]; read-out: dTm 7): 0.9 °C
SMILES: CNc1ncc2cc(-c3cc(Br)ccc3Cl)c(=O)n(C[C@H]3OC[C@H](N)CO3)c2n1 [compound 7, 8-(((2r,5r)-5-Amino-1,3-dioxan-2-yl)methyl)-6-(5-bromo-2-chlorophenyl)-2-(methylamino)pyrido[2,3-d]pyrimidin-7(8H)-one]

ΔTm at 10 µM ([9]; read-out: dTm 6): 1.1 °C
ΔTm at 10 µM ([1]; read-out: dTm 6): 0.2 °C
ΔTm at 10 µM ([2]; read-out: dTm 6): 0.1 °C
ΔTm at 10 µM ([4]; read-out: dTm 6): 0.4 °C
ΔTm at 10 µM ([5]; read-out: dTm 6): 0.5 °C
ΔTm at 10 µM ([6]; read-out: dTm 6): 2 °C
ΔTm at 10 µM ([7]; read-out: dTm 6): -0.1 °C
ΔTm at 10 µM ([8]; read-out: dTm 6): -0.1 °C
SMILES: CNc1ncc2cc(-c3cc(Br)ccc3Cl)c(=O)n(CCCCN)c2n1 [compound 6, 8-(4-Aminobutyl)-6-(5-bromo-2-chlorophenyl)-2-(methylamino)pyrido[2,3-d]pyrimidin-7(8H)-one]

Further lines, the molecule ahead of its results:

SMILES: CNc1ncc2cc(-c3cc(F)ccc3F)c(=O)n(CCCCN)c2n1 [compound 5, 8-(4-Aminobutyl)-6-(2,5-difluorophenyl)-2-(methylamino)pyrido[2,3-d]pyrimidin-7(8H)-one]
ΔTm at 10 µM ([1]; read-out: dTm MR22 (5)): 0.7 °C
ΔTm at 10 µM ([2]; read-out: dTm MR22 (5)): -0.8 °C
ΔTm at 10 µM ([3]; read-out: dTm MR22 (5)): 1.9 °C
ΔTm at 10 µM ([4]; read-out: dTm MR22 (5)): 0.4 °C
ΔTm at 10 µM ([5]; read-out: dTm MR22 (5)): -0.5 °C
ΔTm at 10 µM ([6]; read-out: dTm MR22 (5)): 1 °C
ΔTm at 10 µM ([7]; read-out: dTm MR22 (5)): -1 °C
ΔTm at 10 µM ([8]; read-out: dTm MR22 (5)): -2.8 °C

SMILES: CNc1ncc2cc(-c3ccccc3Cl)c(=O)n(CCCCN)c2n1 [compound 4, 8-(4-Aminobutyl)-6-(2-chlorophenyl)-2-(methylamino)pyrido[2,3-d]pyrimidin-7(8H)-one]
ΔTm at 10 µM ([9]; read-out: dTm MR21 (4)): 2.7 °C
ΔTm at 10 µM ([1]; read-out: dTm MR21 (4)): 2.6 °C
ΔTm at 10 µM ([2]; read-out: dTm MR21 (4)): 2.8 °C
ΔTm at 10 µM ([3]; read-out: dTm MR21 (4)): 2.4 °C
ΔTm at 10 µM ([4]; read-out: dTm MR21 (4)): 0.9 °C
ΔTm at 10 µM ([5]; read-out: dTm MR21 (4)): 0.2 °C
ΔTm at 10 µM ([6]; read-out: dTm MR21 (4)): 0.5 °C
ΔTm at 10 µM ([7]; read-out: dTm MR21 (4)): -0.3 °C
ΔTm at 10 µM ([8]; read-out: dTm MR21 (4)): 0.1 °C

SMILES: CNc1ncc2cc(-c3ccc(-c4cccc(C)n4)cc3Cl)c(=O)n(CC3OCC(N)CO3)c2n1 (stereo not drawn) [compound 2, G-5555]
dTm G-5555 (2) ([9]; 10 µM, binder): 1.8 °C
dTm G-5555 (2) ([1]; 10 µM, binder): -0.2 °C
dTm G-5555 (2) ([2]; 10 µM, binder): 0.8 °C
dTm G-5555 (2) ([3]; 10 µM, binder): 8.0 °C
dTm G-5555 (2) ([4]; 10 µM, binder): 0.9 °C
dTm G-5555 (2) ([5]; 10 µM, binder): 0.9 °C
dTm G-5555 (2) ([7]; 10 µM, binder): -0.6 °C
dTm G-5555 (2) ([8]; 10 µM, binder): -1.1 °C
